Source: patent US20060166957A1, “Methods of treating obesity and related disorders using tellurium selenium compounds” (priority 2003, published 2006)
Where two headings read alike, the source gives them in different places.

Experiments:
ob/ob mice = experiment: AS101 in drinking water of ob/ob mice in metabolic cages: body weight, food intake, blood glucose; type: in vivo
Experimental: Female ob/ob mice (8 weeks old) were placed in metabolic cages and were given free drinking water and chow. After 48 h, one group of 3 mice (the Control group) continued to receive water and chow. A second group of 3 mice received drinking water containing AS 101 (7 mg/L) in addition to the standard chow. The experiment was continued for 18 days and body weights were measured daily. On the average the mice consumed about 1.5 ml of water per 24 h, corresponding to 10 microgram AS101 per mouse per day. This value corresponds to 0.25 mg/kg body weight per 24 h.
On the average, food consumption was reduced by 26±7% (p<0.02, n=16, FIG. 2).
On the last day of treatment, tail blood was withdrawn and blood glucose was determined in three control mice and three mice of the AS101 group.

6-week-old mice = conditions: cited from earlier work
[1] = tested on: liver tissue of ob/ob mice; experiment: Microscopic examination of liver tissue of ob/ob mice after 18 days of AS101 treatment; type: in vivo; conditions: 18 days AS101 treatment, vs control mice, FIG. 4
Excerpt: Following 18 days treatment of the ob/ob mice with AS101 as described in Example 1, the animals were sacrificed. Samples of liver tissue were taken, fixed with formaldehyde and tissue slices were examined microscopically (FIG. 4).

[2] = tested on: Swiss 3T3-F442A murine pre-adipocytes; experiment: Differentiation of pre-adipocytes into mature adipocytes, oil red staining; type: cell-based; conditions: AS101 0.2 micrograms/ml, six days in DMEM with 10% FBS, oil red stain, FIG. 6
Experimental: To gain insight on the mechanism by which AS101 affects the adipose tissue, its effect was studied on an in-vitro model of differentiation of pre-adipocytes into mature adipocytes. It should be clarified here that adipocytes are fully differentiated cells. […] Besides increase in cell volume, the only way to gain weight in vivo is by generating new adipocytes from pre-adipocytes by differentiation. Swiss 3T3-F442A murine pre-adipocytes were grown in DMEM (GIBCO, USA) with 10% calf serum. To induce differentiation into mature adipocytes, confluent cell cultures were maintained in DMEM supplemented with 10% fetal bovine serum (FBS) for six days, either in the presence or in the absence of AS101 (0.2 micrograms/ml). The cultures were then stained with oil red, which specifically stains the fat droplets within the cells.

[3] = tested on: diet-induced obese C57BL/6 mice; experiment: Body weight of diet-induced obese C57BL/6 mice injected daily with AS101; type: in vivo
Experimental: Since the obesity of ob/ob mice is of genetic origin, whereas obesity among human populations is largely due to excess eating over energy expenditure, the effect of AS101 on body weight was studied in diet-induced obese mice. Female mice were fed for 10 weeks with a high fat diet, resulting in moderate obesity (average weight 37 g). Mice were placed in metabolic cages and injected daily with either saline (Control group, 3 mice) or AS 101 (0.5 mg/kg body weight in saline, AS101 group, 3 mice). High fat diet was continued and the body weight was determined daily. […] Therefore, AS101 is an effective medicament for the treatment of diet-induced obesity.

Which body weight gain (ob/ob mice; female ob/ob mice, AS101 7 mg/L in drinking water (0.25 mg/kg body weight per 24 h), 18 days, vs Control group, FIG. 1) does the source give for `Cl[TeH]1(Cl)(Cl)OCCO1` [AS101, ammonium trichloro(dioxoethylene-O,O′)tellurate] here?
The body weight gain was “did not gain weight significantly”.

And the “reduction of food consumption, on the average” value (ob/ob mice; female ob/ob mice, AS101 7 mg/L in drinking water, daily food consumption, p<0.02, n=16, FIG. 2)?
Its value is 26±7%.

And the blood glucose (ob/ob mice; ob/ob mice, tail blood on the last day of treatment (18 days), AS101 7 mg/L in drinking water, FIG. 3)?
The blood glucose was “statistically significant (p<0.05) reduction”.

What about the LD50 (6-week-old mice) of the same compound?
Its LD50 is 300 μg/25 g of body weight.

And the LD50 (6-week-old mice; same value re-expressed)?
The LD50 was 12 mg/kg body weight.

What about the “number and size of adipocytes in liver tissue” value [1] of the same compound?
The value was “extensive reduction in the number of adipocytes and in their size”.

And the “differentiation of pre-adipocytes into mature adipocytes (fat droplets)” value [2]?
Its value is “inhibited the differentiation”.

And the body weight ([3]; female mice on high fat diet, AS101 0.5 mg/kg body weight in saline injected daily, vs saline control, FIG. 5)?
The body weight was “reduced significantly and continued to drop through the entire study”.

And the food intake ([3]; normal mice rendered obese by high-fat diet, AS101 by daily injections)?
Its food intake is “reduction of food intake”.
